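Briefly, cells in 96-well plates were exposed to five compound concentrations for 48 h, and endpoints were estimated by linear interpolation. At the GI50, growth is halved. At the TGI there is no net growth.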 Where a SMILES comes first, the peptide text is derived from it. [ ]: non-standard residue; d: D form. The star is where a group is joined. Lauroyl = CCCCCCCCCCCC(=O)*; Aib = CC(C)(N)C(=O)O; βAla = NCCC(=O)O

For the experiment, the system named is MDA-MB-468 breast. Description: NCI tumour cell line growth inhibition, 48 h.
For the compound `COc1cc(Nc2ncccc2C(=O)NCc2cn(Cc3cccc(Oc4ccccc4)c3)nn2)cc(OC)c1`, the GI50 was 2420 nM and the TGI worked out at 7010 nM.

Regarding `COC(=O)C[C@](O)(CCCC(C)(C)O)C(=O)O[C@@H]1C(OC)=C[C@]23CCCN2CCc2cc4c(cc2[C@H]13)OCO4`, the GI50 is 10.2 nM and the TGI was determined as 36.7 nM.

`CCCCCCCCCCCC(=O)NC(C)(C)C(=O)N1CCCC1C(=O)NC(C)(C)C(=O)NC(C)(C)C(=O)N1CCCC1C(=O)NC(C)(C)C(=O)NC(C)(C)C(=O)N1CCCC1C(=O)NC(C)C(=O)NCCC(=O)NC(C)C(=O)NC(C)(C)C(=O)NC(C)(C)C(=O)NC(C)(C)C(=O)NCCC(=O)NC(C)(C)C(=O)NC(C)(C)C(=O)NC(C)(C)C(=O)NC(C)C(=O)NCCC(=O)O` (stereo not drawn) (Lauroyl-[Aib]P[Aib][Aib]P[Aib][Aib]PA[βAla]A[Aib][Aib][Aib][βAla][Aib][Aib][Aib]A[βAla]-OH; configuration not given here): the GI50 is 328 nM and the TGI was 739 nM.

For the compound `CC(=O)Nc1ccc(S(=O)(=O)N2C(=O)CCC2C(=O)Nc2ccc(Br)cc2)cc1` (stereo not drawn), the GI50 is 1020 nM and the TGI was determined as 5550 nM.

As for `COc1cccc(CC(C)=C(c2ccc(OCCN(C)C)cc2)c2ccc(OCCN(C)C)cc2)c1`, the GI50 is 1160 nM and the TGI is 5260 nM.

In the case of `COC(=O)c1ccc2c(c1)nc(NC(=O)c1ccccc1)n2CCCc1ccccc1`, the GI50 is 3050 nM and the TGI is more than 80000 nM.

For `N#Cc1c(NC(=O)NCc2ccccc2)sc2c1CCCCC2`, the GI50 was 317 nM and the TGI came to 3520 nM.

Take `CN1CCN(C2CCN(C(=O)Nc3cc(Oc4ccc(NC(=O)C5(C(=O)Nc6ccc(F)cc6)CC5)c(F)c4)ccn3)CC2)CC1`: the GI50 was 1030 nM and the TGI was more than 2410 nM.

For the compound `NC(=S)N/N=C/C(=O)O`, the GI50 is 23900 nM and the TGI is more than 100000 nM.

In the case of `Oc1ccc(Nc2ncnc3c2sc2ncccc23)cc1`, the GI50 was 75.1 nM and the TGI is 21000 nM.

In the case of `Cc1ccc(SC2c3ccc(C)cc3Oc3nc(N)c(C#N)c(N)c32)cc1` (stereo not drawn), the GI50 was 1770 nM and the TGI came to 3740 nM.

Regarding `Nc1ccc([N+](=O)[O-])cc1N=C/C=C/c1ccccc1`, the GI50 was 4680 nM and the TGI turned out to be 43000 nM.

As to `CCOC(=O)C1=CN(C)C=C(C(=O)OCC)C1c1cc(Br)c(OCC)c(OC)c1`, the GI50 is more than 100000 nM and the TGI was more than 100000 nM.

Regarding `CCCn1cnc2c(c1=N)C(c1ccc(Cl)cc1)c1sc3c(CC)cccc3c1O2` (stereo not drawn), the GI50 was 508 nM and the TGI is 4140 nM.

In the case of `C#CCOc1cccc(-c2ncc3cc(NC(=O)CCl)ccc3n2)c1`, the GI50 is 1740 nM and the TGI was 3550 nM.

On to `O=C(O)COc1ccc2c(=O)c3sc4c(=O)c5ccccc5c(=O)c4c3c(=O)c2c1`, for which the GI50 was 14900 nM and the TGI was 35400 nM.

Turning to `Cn1c(I)c(C#CCO[Si](C)(C)C(C)(C)C)c(=O)[nH]c1=O`, the GI50 is 1880 nM and the TGI turned out to be 4330 nM.

Regarding `CCN(CC)CCC(CNc1ccnc2cc(Cl)ccc12)c1ccc(Cl)cc1` (stereo not drawn), the GI50 was 413 nM and the TGI stood at 1520 nM.

For the compound `CNCc1ccccc1-c1csc([C@@H](C)Nc2nc(C)nc3cc(OC)c(OC)cc23)c1`, the GI50 was 1100 nM and the TGI stood at 2590 nM.

As for `C=C(C=O)[C@@H]1CC[C@]2(CO)CC[C@]3(C)[C@H](CC[C@@H]4[C@@]5(C)CCCNC(C)(C)[C@@H]5CC[C@]43C)[C@@H]12`, the GI50 was 3770 nM and the TGI came out at 16500 nM.

As for `NC(=O)/C=C/C(=O)c1c(Cl)cccc1Cl`, the GI50 is 292 nM and the TGI stood at 971 nM.

Consider `COc1ccc(/C=C\[N+](=O)[O-])cc1OC`, for which the GI50 is 3050 nM and the TGI was 11300 nM.

With `COc1ccc(OC)c2c1[nH]c(=O)c1c3ccccc3cn21`, the GI50 was 1080 nM and the TGI was 2550 nM.

Take `COc1ccccc1/C=N\N/C(N)=N\N=C\c1ccccc1OC`: the GI50 is 613 nM and the TGI was more than 45700 nM.

The values above are taken from PubChem BioAssay (NCI).
